Measured values taken from patent US20250186521A1 (priority 2018, published 2025).

Tests used:
Type in all cases: in vivo, Broiler chickens
[1] = test system: mixed E. acervulina, E. maxima, and E. tenella coccidial inoculum; test: Cocci Test (Example 6): performance, average lesion score, total OPG; details: 1.0 lb/t
Text: (§1) • 1. No Additive, no Cocci • 2. No Additive, Cocci • 3. Salinomycin 60 g/t, Cocci • 4.
(§2) Each group was replicated 10 times. Cages were blocked by location in the battery with block size equal to groups (7 cages per block). The study began when the birds were placed (day of hatch, i.e., DOT 0) at which time they were allocated to the experimental cages. Only healthy birds were selected (10 birds/cage).
Upon arrival, chicks were raised in Petersime battery cages. At placement the birds were fed the various feeds. The Petersime batteries were in an insulated building having a concrete floor and a metal overhead structure. The floor space per animal was 0.51 sq. ft per bird. The feeder space per bird was 10 birds per 24×3.5-inch feeder. Uniform temperature and illumination was provided.
(§3) An unmedicated commercial chicken feed composition compounded with feedstuffs commonly used in the U.S. poultry industry, such as cereals and proteins, was obtained. The diet was an all-vegetable feed with no antibiotics, organic acids, NSP enzymes, or direct fed microbial. This feed in mash form was fed ad libitum from the date of chick arrival until Day 28 of the study. Experimental feeds augmented with the algal biomass were prepared from this commercial poultry feed. The feeds were mixed to assure a uniform distribution of algal biomass into the mash feed.
Day of hatch male broiler chicks of strain Cobb 500 were obtained from Cobb-Vantress, Cleveland, GA. Sets of ten chicks were randomly selected, group weighed and placed into cages. Number and disposition of all birds not used for allocation were documented. No birds were replaced during the study.
(§4) All birds were weighed by cage on DOT 0, 14, 20 and 28. Feed was weighed in on DOT 0 and remaining feed was weighed on DOT 14, 20, and 28.
On Day 14 of the study all birds except Tl orally received a mixed E. acervulina, E. maxima, and E. tenella coccidial inoculum diluted to a 1 ml volume (p.o.). Inoculum level attempted to produce a moderate challenge.
(§5) On DOT 20, five birds from each cage were selected, sacrificed, weighed, and examined for the degree of presence of coccidia lesions. If less than five birds were present at time of scoring, all remaining birds within the cage were scored. The Johnson and Reid, 1970 method of coccidiosis lesion scoring was used to score the infected region(s) of the intestine. The scoring was based on a 0 to 4 score, with 0 being normal and 4 being the most severe.
(§6) Day 19 (Day 5 post challenge) drop pans from all cages were cleaned. Day 20 (Day 6 pc) mixed feces were collected from each cage. Each sample was examined for the number of oocysts per gram fecal material by fecal floatation.
(§7) Means for cage weight gain, feed consumption, feed conversion rate, lesion scores, opgs, and mortality were calculated.

[2] = test system: Eimeria tenella; test: Anticoccidial efficacy (Example 5): lesion score and OPG, Eimeria tenella; details: 60 g/t, infected
Text: (§8) • 1. No Additive, no Cocci. • 2. No Additive, Cocci. • 3. Salinomycin 60 g/t, Cocci. • 4. Product Z 0.551%, Cocci.
(§9) Cages were blocked by location in the battery with block size equal to the groups (8 cages per block). The study began when the birds were placed (day of hatch, i.e., DOT 0) at which time they were allocated to the experimental cages. Only healthy birds were selected (10 birds/cage).
(§10) An unmedicated commercial chicken feed composition compounded with feedstuffs commonly used in the U.S. poultry industry, such as cereals and proteins, was obtained. The diet was an all-vegetable feed with no antibiotics, organic acids, NSP enzymes, or direct fed microbial. This feed in mash form was fed ad libitum from the date of chick arrival until Day 28 of the study. Experimental feeds augmented with the algal biomass were prepared from this commercial poultry feed. The feeds were mixed to assure a uniform distribution of algal biomass into the mash feed. […]
(§11) On DOT 20, five birds from each cage were selected, sacrificed, weighed, and examined for the degree of presence of coccidia lesions. If less than five birds were present at time of scoring, all remaining birds within the cage were scored. […]
as §7

[3] = test system: Eimeria acervulina; test: Cocci Test (Example 6): lesion score and OPG, Eimeria acervulina; details: 1.0 lb/t, infected
Text: as §1, §2, §10, §11, §7

[4] = test system: mixed E. acervulina, E. maxima, and E. tenella coccidial inoculum; test: Anticoccidial efficacy versus salinomycin (Example 5): performance, average lesion score, total OPG; details: 60 g/t
Text: as §8, §9
Upon arrival, chicks were raised in Petersime battery cages. At placement the birds were fed the various feeds. The Petersime batteries were in an insulated building having a concrete floor and a metal overhead structure. The floor space per animal was 0.51 sq. ft. per bird. The feeder space per bird was 10 birds per 24×3.5-inch feeder. Uniform temperature and illumination was provided.
as §3
Day of hatch male broiler chicks of strain Cobb X Cobb were obtained from Cobb-Vantress, Cleveland, GA. Sets of ten chicks were randomly selected, group weighed and placed into cages. No birds were replaced during the study.
as §4
Coccidial oocysts inoculation procedures were described. On Day 14 of the study all birds except Tl orally received a mixed E. acervulina, E. maxima, and E. tenella coccidial inoculum diluted to a 1 ml volume (p.o.). Inoculum level attempted to produce a moderate challenge.
as §5, §6, §7

[5] = test system: Eimeria maxima; test: Cocci Test (Example 6): lesion score and OPG, Eimeria maxima; details: 1.0 lb/t, infected
Text: as §1, §2, §10, §11, §7

[6] = test system: Eimeria tenella; test: Cocci Test (Example 6): lesion score and OPG, Eimeria tenella; details: 1.0 lb/t, infected
Text: as §1, §2, §10, §11, §7

[7] = test system: Eimeria maxima; test: Anticoccidial efficacy (Example 5): lesion score and OPG, Eimeria maxima; details: 60 g/t, infected
Text: as §8, §9, §10, §11, §7

[8] = test system: Eimeria acervulina; test: Anticoccidial efficacy (Example 5): lesion score and OPG, Eimeria acervulina; details: 60 g/t, infected
Text: as §8, §9, §10, §11, §7

Q: Which results are given for CC[C@@H](C(=O)[C@@H](C)[C@@H](O)[C@H](C)[C@@H]1O[C@@H]([C@@H](CC)C(=O)O)CC[C@@H]1C)[C@H]1O[C@]2(C=C[C@@H](O)[C@]3(CC[C@@](C)([C@H]4CC[C@](O)(CC)[C@H](C)O4)O3)O2)[C@H](C)C[C@@H]1C [Salinomycin]?
A: FCR Day 0-20 ([1]; infected): 1.876ab; FCR Day 0-28 ([1]; infected): 1.832a; FCR Day 14-20 ([1]; infected): 1.839b; FCR Day 14-28 ([1]; infected): 1.789a; Feed Intake Day 0-20 ([1]; infected): 7.064b; Feed Intake Day 0-28 ([1]; infected): 9.852bc; Feed Intake Day 14-20 ([1]; infected): 3.628b; Feed Intake Day 14-28 ([1]; infected): 6.416b; Wt. Gain Day 0-20 ([1]; infected): 0.382b; Wt. Gain Day 0-28 ([1]; infected): 0.718bc; Wt. Gain Day 14-20 ([1]; infected): 0.201b; Wt. Gain Day 14-28 ([1]; infected): 0.537b; FCR Day 14 ([1]; infected on Day 14): 1.491a; Feed Intake Day 14 ([1]; infected on Day 14): 3.436ab; Wt. Gain Day 14 ([1]; infected on Day 14): 0.232b; Lesion Scores Avg. ([1]; infected, DOT 20, 0 to 4 score): 1.5c; OPG Total Avg. ([1]; infected, Day 20 feces): 35.178c OPG; Lesion Scores Eimeria tenella ([2]; DOT 20, 0 to 4 score): 0.7c; OPG Eimeria tenella ([2]; Day 20 feces): 4727c OPG; Lesion Scores Eimeria acervulina ([3]; DOT 20, 0 to 4 score): 1.7c; OPG Eimeria acervulina ([3]; Day 20 feces): 30802c OPG; FCR Day 0-20 ([4]; infected): 1.597bc; FCR Day 0-28 ([4]; infected): 1.625bc; FCR Day 14-20 ([4]; infected): 1.744b; FCR Day 14-28 ([4]; infected): 1.766c; Feed Intake Day 0-20 ([4]; infected): 5.433a; Feed Intake Day 0-28 ([4]; infected): 5.918a; Feed Intake Day 14-20 ([4]; infected): 3.049a; Feed Intake Day 14-28 ([4]; infected): 3.534a; Wt. Gain Day 0-20 ([4]; infected): 0.360b; Wt. Gain Day 0-28 ([4]; infected): 0.376b; Wt. Gain Day 14-20 ([4]; infected): 0.185b; Wt. Gain Day 14-28 ([4]; infected): 0.202b; FCR Day 14 ([4]; infected on Day 14): 1.156a; Feed Intake Day 14 ([4]; infected on Day 14): 2.384a; Wt. Gain Day 14 ([4]; infected on Day 14): 0.218a; Lesion Scores Avg. ([4]; infected, DOT 20, 0 to 4 score): 1.3c; OPG Total Avg. ([4]; infected, Day 20 feces): 9722b OPG; Lesion Scores Eimeria maxima ([5]; DOT 20, 0 to 4 score): 1.7b; OPG Eimeria maxima ([5]; Day 20 feces): 2608a OPG; Lesion Scores Eimeria tenella ([6]; DOT 20, 0 to 4 score): 1.1b; OPG Eimeria tenella ([6]; Day 20 feces): 1768b OPG; Lesion Scores Eimeria maxima ([7]; DOT 20, 0 to 4 score): 0.9c; OPG Eimeria maxima ([7]; Day 20 feces): 484b OPG; Lesion Scores Eimeria acervulina ([8]; DOT 20, 0 to 4 score): 2.1c; OPG Eimeria acervulina ([8]; Day 20 feces): 4511c OPG
